# Square brackets hold non-standard residues; d marks the D form. Peptide text beside a SMILES is read from it.
# Experiments:
# MDR-TB = assay type: cell-based, Mycobacterium tuberculosis; parameters: key: Cord formation like wild type (without peptide) was classified as “normal”; no cord formation was detected, and they were classified as “not observed”; settings: 10 µg/mL peptide; Nikon Ni-E microscope
# MTB = settings: peptide 14D combined with another peptide; clinical trial, 255 samples from adults, routine test; cited from earlier work
# M. tuberculosis H37Rv [1] = settings: microdilution broth, 96-well, 2 × 10^5 CFU/mL, 37 °C 14 days, resazurin 48 h; conducted twice with three technical replicates each
# M. tuberculosis H37Rv [2] = assay type: cell-based, Mycobacterium tuberculosis; parameters: key to Cord Formation at 10 µg/mL, H37Rv: Cord formation like wild type (without peptide) was classified as “normal”; no cord formation was detected, and they were classified as “not observed”; settings: for Cord Formation at 10 µg/mL, H37Rv: 10 µg/mL peptide, Nikon Ni-E microscope
# M. tuberculosis = assay type: cell-based, Mycobacterium tuberculosis; settings: for TTP Values at Different Peptide Concentrations, 30 µg/mL: purified peptide 30 µg/mL, MGIT, BD BACTEC MGIT 320, TB alone 12 d 4 h
Molecule,"Cord Formation at 10 µg/mL, MDR-TB (MDR-TB)",increase in sample positivity rates (MTB) [%],"MIC in µg/mL, H37Rv (M. tuberculosis H37Rv [1]) [µg/mL]","Cord Formation at 10 µg/mL, H37Rv (M. tuberculosis H37Rv [2])",effect on cord formation (M. tuberculosis H37Rv [2]; 1 and 10 µg/mL peptide),"TTP Values at Different Peptide Concentrations, 30 µg/mL (M. tuberculosis)",prolongation of TTP compared to the wild type (M. tuberculosis; 3 µg/mL purified peptide),reduction of TTP compared to the wild-type peptide 14D (M. tuberculosis; 3 µg/mL purified peptide) [h],reduction of TTP relative to the untreated control (M. tuberculosis; 3 µg/mL purified peptide) [h]
CC[C@@H](C)[C@@H](NC(=O)[C@@H](CCCCN)NC(=O)[C@H](N)Cc1c[nH]c2ccccc12)C(=O)N[C@@H](C(=O)N[C@H](Cc1ccccc1)C(=O)N[C@H](Cc1c[nH]c2ccccc12)C(=O)N[C@H](Cc1c[nH]c2ccccc12)C(=O)N[C@H](CCCNC(=N)N)C(=O)N[C@H](CCCNC(=N)N)C(N)=O)C(C)C [peptide 14D] (H-[dW][dK][dI][dV][dF][dW][dW][dR][dR]-NH2),not observed,46,>50,not observed,diminish cord formation,,,,
CC[C@@H](C)[C@@H](NC(=O)[C@@H](CCCCN)NC(=O)[C@H](N)Cc1c[nH]c2ccccc12)C(=O)N[C@H](CO)C(=O)N[C@H](Cc1ccccc1)C(=O)N[C@H](Cc1c[nH]c2ccccc12)C(=O)N[C@H](Cc1c[nH]c2ccccc12)C(=O)N[C@H](CCCNC(=N)N)C(=O)N[C@H](CCCNC(=N)N)C(N)=O [wkisfwwrr] (H-[dW][dK][dI][dS][dF][dW][dW][dR][dR]-NH2; N-terminus assumed),normal,,20,normal,,,,,
CC[C@@H](C)[C@@H](NC(=O)[C@@H](CCCCN)NC(=O)[C@H](N)Cc1c[nH]c2ccccc12)C(=O)N[C@@H](C(=O)N[C@H](Cc1ccccc1)C(=O)NCC(=O)N[C@H](Cc1c[nH]c2ccccc12)C(=O)N[C@H](CCCNC(=N)N)C(=O)N[C@H](CCCNC(=N)N)C(N)=O)C(C)C [wkivfGwrr] (H-[dW][dK][dI][dV][dF]G[dW][dR][dR]-NH2; N-terminus assumed),normal,,20,normal,,neg (55 d),,,
CC[C@@H](C)[C@@H](NC(=O)[C@@H](CCCCN)NC(=O)[C@H](N)Cc1c[nH]c2ccccc12)C(=O)N[C@@H](C(=O)N[C@H](Cc1ccccc1)C(=O)N[C@H](CC(=O)O)C(=O)N[C@H](Cc1c[nH]c2ccccc12)C(=O)N[C@H](CCCNC(=N)N)C(=O)N[C@H](CCCNC(=N)N)C(N)=O)C(C)C [wkivfdwrr] (H-[dW][dK][dI][dV][dF][dD][dW][dR][dR]-NH2),not observed,,20,not observed,,neg (55 d),approximately 22 days,,
CC[C@@H](C)[C@@H](NC(=O)[C@@H](CCCCN)NC(=O)[C@H](N)Cc1c[nH]c2ccccc12)C(=O)N[C@@H](C(=O)N[C@H](Cc1ccccc1)C(=O)N[C@H](CC(N)=O)C(=O)N[C@H](Cc1c[nH]c2ccccc12)C(=O)N[C@H](CCCNC(=N)N)C(=O)N[C@H](CCCNC(=N)N)C(N)=O)C(C)C [wkivfnwrr] (H-[dW][dK][dI][dV][dF][dN][dW][dR][dR]-NH2; N-terminus assumed),normal,,20,normal,,,,,
"NH2-wkivfiwrr-CONH2 [14D, position 6 w substituted by i, C-terminal amidated]",,,,,,,,25,56

# — publication PMC10819809 (Microorganisms, 2024)
